Source: patent US9017673B2, “Peptide analogues comprising at least one type of aminoacylaza-$g(b)3and the use thereof, in particular for therapy” (Centre National de la Recherche Scientifique, priority 2003, dated 2015)
Entries after “also recorded” stand apart in the source; their conditions may differ. Square brackets hold non-standard residues; d marks the D form. NαhTyr = N-alpha-homo tyrosine (backbone-modified residue); NαhAla = N-alpha-homo alanine (backbone-modified residue); NαhLeu = N-alpha-homo leucine (backbone-modified residue); NαhLys = N-alpha-homo lysine (backbone-modified residue)

How the values were obtained:
[1] = system: T lymphocytes of BALB/c mice injected with the modified peptide 88-99 of the histone H4; assay: Mirror test: T lymphocytes of mice injected with the modified 88-99 H4 peptides, stimulated ex vivo with the analogue and the parent peptide 88-99; type: in vivo; details: for immunogenicity (induces responses against the homologous peptide): mice injected with the analogue subcutaneously with Freund's adjuvant; for cross reaction of the generated T cells with the parent peptide 88-99: mice injected with the analogue, ex vivo stimulation with parent peptide 88-99
Protocol: In addition, a mirror manipulation of the foregoing was performed, namely response tests on the T lymphocytes of mice injected with the modified peptides and stimulation ex vivo with the parent peptide (88-99). After injection of the analogues, analyses were performed on cell cultures with the said analogues and the parent peptide 88-99. The following results are observed:
In addition, a mirror experiment of the foregoing was performed, namely an experiment on mice injected with the peptide G and stimulation ex vivo with increasing quantities of the parent peptide (88-99).
FIG. 2: Response tests on the T lymphocytes of BALB/c mice injected with the modified peptide 88-99 A or with the modified peptide 88-99 D of the histone H4 subcutaneously with Freund's adjuvant. The stimulation index is shown on the y-axis and the different concentrations of peptide are shown on the x-axis.
FIG. 3: Response tests on the T lymphocytes of BALB/c mice injected with the modified peptide 88-99 E of the histone H4 subcutaneously with Freund's adjuvant. The stimulation index is shown on the y-axis and the different concentrations of peptide are shown on the x-axis.
FIG. 5: Response tests on the T lymphocytes of BALB/c mice injected with the modified peptide 88-99 G of the histone H4 subcutaneously with Freund's adjuvant. The stimulation index is shown on the y-axis and the different concentrations of peptide are shown on the x-axis.

[2] = system: T lymphocytes of BALB/c mice immunized with the parent peptide 88-99H4; assay: T lymphocyte proliferation (tritiated thymidine) of mice immunized with parent peptide 88-99H4, restimulated in culture with parent peptide or analogues; type: cell-based; details: mice immunized with parent 88-99H4; for index of stimulation (IS) relative to the wells without peptide: restimulation peptide 90 μM (printed "to 90 μM"), FIG. 1; for index of stimulation (IS): restimulation peptide 100 μM (printed "to 100 μM"), FIG. 4; for activity compared with that of the parent peptide 88-99: T cell restimulation
Protocol: BALB/c mice were immunized with the parent peptide 88-99H4 and in cell cultures the T lymphocytes of these mice were restimulated with the same peptide or with the analogues A-E. The cell proliferation was measured by the incorporation of tritiated thymidine and the index of stimulation (1S) relative to the wells without peptide was calculated. The tests are performed in triplicate and the experiment is performed several times in independent experiments.
The same experiments were performed with peptide G, (corresponding to the sequence SEQ ID NO: 7).
(§1) FIG. 1: Response tests on the T lymphocytes of BALB/c mice injected with the parent peptide 88-99 of the histone H4 subcutaneously with Freund's adjuvant, and stimulation ex-vivo with the parent peptide or the analogue E; the stimulation index is shown on the y-axis and the different concentrations of peptide are shown on the x-axis.
as §1, with “4:” for “1:”, “G;” for “E;”

Row | Substance | immunogenicity (induces responses against the homologous peptide) [1] | cross reaction of the generated T cells with the parent peptide 88-99 [1] | index of stimulation (IS) relative to the wells without peptide [2] | index of stimulation (IS) [2] | activity compared with that of the parent peptide 88-99 [2]
1 | ^88H2N-Tyr-Nα-hAla-Leu-Lys-Arg-Gln-Gly-Arg-Thr-Leu-Tyr-Gly-OH^99 (H-Y[NαhAla]LKRQGRTLYG-OH; also: Nα-homo amino acid residue) [peptide A] | immunogenic | no cross reaction with the parent peptide | – | – | –
2 | H-Tyr-Ala-Leu-Lys-Arg-Gln-Gly-Arg-Thr-Leu-Tyr-Gly-OH (H-YALKRQGRTLYG-OH; listed as Homo sapiens) [parent peptide 88-99H4, reference compound] | – | – | 6.7 | 16.9 | –
3 | ^88H2N-Tyr-Ala-Leu-Nα-hLys-Arg-Gln-Gly-Arg-Thr-Leu-Tyr-Gly-OH^99 (H-YAL[NαhLys]RQGRTLYG-OH; also: Nα-homo amino acid residue) [peptide D] | immunogenic | no cross reaction with the parent peptide | – | – | –
4 | ^88H2N-Tyr-Ala-Leu-Lys-Arg-Gln-Gly-Arg-Thr-Nα-hLeu-Tyr-Gly-OH^99 (H-YALKRQGRT[NαhLeu]YG-OH; also: Nα-homo leucine residue) [peptide E] | immunogenic | react by cross reaction with the parent peptide; also recorded: cross reacts perfectly | 7.7 | – | analogous, or even superior depending on the experiments
5 | ^88H2N-Tyr-Ala-Leu-Lys-Arg-Gln-Gly-Arg-Thr-Nα-hLeu-Nα-hTyr-Gly-OH^99 (H-YALKRQGRT[NαhLeu][NαhTyr]G-OH; also: Nα-homo leucine and tyrosine residues) [peptide G] | immunogenic | react by cross reaction with the homologous peptide G and in particular with the parent peptide with the same intensity | – | 16.6 | analogous
